Assays:
Rattus norvegicus [1] = test: Antinociceptive activity in Sprague-Dawley rat model of paw mechanical allodynia assessed as maximum possible analgesia at 50 mg/kg, ip by Randall-Selitto test relative to control; format: functional
Rattus norvegicus [2] = test: Antinociceptive activity in Sprague-Dawley rat model of paw mechanical allodynia assessed as reduction in paw pressure by measuring AUC (0 to t) of paw pressure test at 50 mg/kg, ip by Randall-Selitto test; format: functional, organism-based
Rattus norvegicus [3] = test: Antinociceptive activity in Sprague-Dawley rat model of paw mechanical allodynia assessed as duration above 50% maximum possible analgesia at 50 mg/kg, ip by Randall-Selitto test; format: functional
Rattus norvegicus [4] = test: Antinociceptive activity in Sprague-Dawley rat model of thermal-induced nociception assessed as maximum possible analgesia at 50 mg/kg, ip measured over 2.5 hrs by cold-ethanol tail-flick test relative to control; format: functional
Rattus norvegicus [5] = test: Antinociceptive activity in Sprague-Dawley rat model of thermal-induced nociception assessed as duration above 50% maximum possible analgesia at 1 mg/kg administered as intra-cisternal injection measured over 2.5 hrs by cold-ethanol tail-flick test; format: functional
Rattus norvegicus [6] = test: Antinociceptive activity in Sprague-Dawley rat model of thermal-induced nociception assessed as duration above 50% maximum possible analgesia at 50 mg/kg, ip measured over 2.5 hrs by cold-ethanol tail-flick test; format: functional
Rattus norvegicus [7] = test: Antinociceptive activity in Sprague-Dawley rat model of paw mechanical allodynia assessed as reduction in paw pressure by measuring AUC (0 to t) of paw pressure test at 1 mg/kg administered as intra-cisternal injection by Randall-Selitto test; format: functional, organism-based
Rattus norvegicus [8] = test: Antinociceptive activity in Sprague-Dawley rat model of thermal-induced nociception assessed as reduction in tail-flick response by measuring AUC (0 to t) of tail flick test at 1 mg/kg administered as intra-cisternal injection measured over 2.5 hrs by cold-ethanol tail-flick test; format: functional, organism-based; design: dose 1 mg/kg, time < 2.5 hr
Rattus norvegicus [9] = test: Antinociceptive activity in Sprague-Dawley rat model of thermal-induced nociception assessed as maximum possible analgesia at 1 mg/kg administered as intra-cisternal injection measured over 2.5 hrs by cold-ethanol tail-flick test relative to control; format: functional
Rattus norvegicus [10] = test: Antinociceptive activity in Sprague-Dawley rat model of paw mechanical allodynia assessed as duration above 50% maximum possible analgesia at 1 mg/kg administered as intra-cisternal injection by Randall-Selitto test; format: functional
Rattus norvegicus [11] = test: Antinociceptive activity in Sprague-Dawley rat model of paw mechanical allodynia assessed as maximum possible analgesia at 1 mg/kg administered as intra-cisternal injection by Randall-Selitto test relative to control; format: functional
Rattus norvegicus [12] = test: Antinociceptive activity in Sprague-Dawley rat model of thermal-induced nociception assessed as reduction in tail-flick response by measuring AUC (0 to t) of tail flick test at 50 mg/kg, ip measured over 2.5 hrs by cold-ethanol tail-flick test; format: functional, organism-based; design: time < 2.5 hr, dose 50 mg/kg
Rattus norvegicus [13] = species: Rattus norvegicus; test: Ratio of AUC for test compound to AUC for nalbuphine for antinociceptive activity in Sprague-Dawley rat model by cold-ethanol tail-flick test; format: functional
Rattus norvegicus [14] = species: Rattus norvegicus; test: Ratio of AUC for test compound to AUC for nalbuphine for antinociceptive activity in Sprague-Dawley rat model by Randall-Selitto test; format: functional

Structure (SMILES): Oc1ccc2c3c1O[C@H]1[C@@H](O)CC[C@@]4(O)[C@@H](C2)N(CC2CCC2)CC[C@]314 [NALBUPHINE]
- Activity (Rattus norvegicus [1]): 37.9%
- AUC (Rattus norvegicus [2]): 169 g·h
- Time (Rattus norvegicus [3]): 0.1 h
- Activity (Rattus norvegicus [4]): 43.6%
- Time (Rattus norvegicus [5]): 0.07 h
- Time (Rattus norvegicus [6]): 0.15 h
- AUC (Rattus norvegicus [7]): 176 g·h
- AUC (Rattus norvegicus [8]): 11.3 hr.sec
- Activity (Rattus norvegicus [9]): 38.4%
- Time (Rattus norvegicus [10]): 0.13 h
- Activity (Rattus norvegicus [11]): 48%
- AUC (Rattus norvegicus [12]): 16.9 hr.sec

Structure (SMILES): O=C(O)[C@H]1O[C@@H](O[C@H]2CC[C@@]3(O)[C@H]4Cc5ccc(O)c6c5[C@@]3(CCN4CC3CCC3)[C@H]2O6)[C@H](O)[C@@H](O)[C@@H]1O
- Activity (Rattus norvegicus [1]): 29.6%
- AUC (Rattus norvegicus [2]): 158 g·h
- Activity (Rattus norvegicus [4]): 22.7%
- AUC (Rattus norvegicus [7]): 510 g·h
- AUC (Rattus norvegicus [8]): 40.3 hr.sec
- Activity (Rattus norvegicus [9]): 96.5%
- Ratio (Rattus norvegicus [13]): 3.5
- Ratio (Rattus norvegicus [14]): 2.8
- Time (Rattus norvegicus [10]): 91 h
- Activity (Rattus norvegicus [11]): 95.1%
- AUC (Rattus norvegicus [12]): 5.4 hr.sec

Structure (SMILES): O=C(O)[C@H]1O[C@@H](Oc2ccc3c4c2O[C@H]2[C@@H](O)CC[C@@]5(O)[C@@H](C3)N(CC3CCC3)CC[C@]425)[C@H](O)[C@@H](O)[C@@H]1O
- Activity (Rattus norvegicus [1]): 17.7%
- AUC (Rattus norvegicus [2]): 73.4 g·h
- Activity (Rattus norvegicus [4]): 19.3%
- Time (Rattus norvegicus [5]): 1.36 h
- AUC (Rattus norvegicus [7]): 23.5 g·h
- AUC (Rattus norvegicus [8]): 5.4 hr.sec
- Activity (Rattus norvegicus [9]): 22.3%
- Activity (Rattus norvegicus [11]): 7.3%
- AUC (Rattus norvegicus [12]): 5.8 hr.sec
